*1 amine or outer side, *2 acyl side, *3 side chain or, on linkers, in order; H or OH if unused. Where a SMILES comes first, the peptide text is derived from it. Bridges are numbered along the chain shown (N, C = ends). [ ]: non-standard residue; d: D form. X1 = O=C(O)CCNC(=S)NCCCC[C@H](N[*:1])C(=O)[*:2]; Suberoyl = O=C(CCCCCCC(=O)[*:2])[*:1]
Assays:
[1] = molecular target: T1, NAD-dependent protein deacylase sirtuin-5, mitochondrial (Homo sapiens, UniProt Q9NXA8); assay: Inhibition of GST-tagged SIRT5 (unknown origin) incubated for 10 mins by HPLC based analysis
Target sequence in this assay (Q9NXA8 whole entry, the tested form may be a part): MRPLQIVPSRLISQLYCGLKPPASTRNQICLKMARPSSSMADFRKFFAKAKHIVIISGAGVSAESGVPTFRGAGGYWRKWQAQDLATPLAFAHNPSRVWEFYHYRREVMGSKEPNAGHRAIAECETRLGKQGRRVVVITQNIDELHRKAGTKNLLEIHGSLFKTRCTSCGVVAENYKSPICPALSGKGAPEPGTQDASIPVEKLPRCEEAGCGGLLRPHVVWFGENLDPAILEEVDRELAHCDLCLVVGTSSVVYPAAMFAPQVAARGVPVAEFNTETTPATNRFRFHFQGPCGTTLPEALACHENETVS

[2] = molecular target: T2, NAD-dependent protein deacetylase sirtuin-3, mitochondrial (Homo sapiens, UniProt Q9NTG7); assay: Inhibition of human SIRT3 (118 to 399 aa) expressed in Escherichia coli BL21 cells
T2 sequence (Q9NTG7 whole entry): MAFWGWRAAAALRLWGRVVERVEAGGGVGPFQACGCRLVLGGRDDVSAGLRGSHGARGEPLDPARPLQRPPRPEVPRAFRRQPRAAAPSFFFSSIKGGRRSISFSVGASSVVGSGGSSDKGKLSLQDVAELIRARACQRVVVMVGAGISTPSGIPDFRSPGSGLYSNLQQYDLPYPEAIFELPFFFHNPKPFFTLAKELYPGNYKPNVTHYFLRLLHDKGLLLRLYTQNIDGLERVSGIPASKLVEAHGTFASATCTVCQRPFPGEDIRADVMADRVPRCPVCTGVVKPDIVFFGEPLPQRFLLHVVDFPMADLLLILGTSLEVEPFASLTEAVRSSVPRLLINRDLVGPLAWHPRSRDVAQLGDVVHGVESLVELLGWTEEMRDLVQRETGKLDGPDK

[3] = molecular target: T3, NAD-dependent protein deacetylase sirtuin-1 (Homo sapiens, UniProt Q96EB6); assay: Inhibition of human N-terminal His6 tagged SIRT1 (183-505-(GGGS)2-641-665 residues) expressed in Escherichia coli BL21 cells
T3 sequence (Q96EB6 whole entry): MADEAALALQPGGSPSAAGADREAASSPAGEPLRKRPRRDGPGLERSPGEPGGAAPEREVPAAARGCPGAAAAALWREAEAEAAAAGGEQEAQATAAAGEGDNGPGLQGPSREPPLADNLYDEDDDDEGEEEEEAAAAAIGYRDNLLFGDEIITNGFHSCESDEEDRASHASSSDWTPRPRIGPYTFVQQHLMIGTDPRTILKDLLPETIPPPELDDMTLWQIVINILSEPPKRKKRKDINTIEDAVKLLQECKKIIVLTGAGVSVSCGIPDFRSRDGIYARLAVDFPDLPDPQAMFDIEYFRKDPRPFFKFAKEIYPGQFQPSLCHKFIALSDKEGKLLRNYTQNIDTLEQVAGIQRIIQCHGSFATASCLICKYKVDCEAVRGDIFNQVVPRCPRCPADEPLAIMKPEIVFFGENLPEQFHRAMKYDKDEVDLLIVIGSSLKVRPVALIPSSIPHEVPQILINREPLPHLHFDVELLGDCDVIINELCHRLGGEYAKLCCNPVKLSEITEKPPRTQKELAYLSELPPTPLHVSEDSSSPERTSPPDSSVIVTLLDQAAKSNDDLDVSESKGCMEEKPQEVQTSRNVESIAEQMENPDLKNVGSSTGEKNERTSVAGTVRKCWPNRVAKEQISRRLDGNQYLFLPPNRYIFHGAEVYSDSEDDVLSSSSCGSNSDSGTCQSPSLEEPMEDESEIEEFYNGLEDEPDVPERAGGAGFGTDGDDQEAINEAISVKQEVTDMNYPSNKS

[4] = molecular target: T1, NAD-dependent protein deacylase sirtuin-5, mitochondrial; assay: Inhibition of SIRT5 (unknown origin)
Target sequence in this assay (Q9NXA8 whole entry, the tested form may be a part): as the sequence (Q9NXA8 whole entry, the tested form may be a part) above

[5] = molecular target: T1, NAD-dependent protein deacylase sirtuin-5, mitochondrial; assay: Inhibition of GST-tagged SIRT5 (unknown origin) incubated for 5 mins by HPLC based analysis
Target sequence in this assay (Q9NXA8 whole entry, the tested form may be a part): as the sequence (Q9NXA8 whole entry, the tested form may be a part) above

[6] = molecular target: T1, NAD-dependent protein deacylase sirtuin-5, mitochondrial; assay: Inhibition of SIRT5 (unknown origin) at 30 uM relative to control
Target sequence in this assay (Q9NXA8 37-310 limits assumed): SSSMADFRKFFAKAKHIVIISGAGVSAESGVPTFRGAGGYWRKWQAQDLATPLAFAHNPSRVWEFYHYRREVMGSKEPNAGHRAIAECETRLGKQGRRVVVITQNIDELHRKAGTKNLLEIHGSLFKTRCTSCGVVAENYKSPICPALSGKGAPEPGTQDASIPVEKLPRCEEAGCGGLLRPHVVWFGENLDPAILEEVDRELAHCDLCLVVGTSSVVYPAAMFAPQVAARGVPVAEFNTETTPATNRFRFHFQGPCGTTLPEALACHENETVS

[7] = molecular target: T1, NAD-dependent protein deacylase sirtuin-5, mitochondrial; assay: Inhibition of SIRT5 (unknown origin) at 100 uM relative to control
Target sequence in this assay (Q9NXA8 37-310 limits assumed): as above

[8] = molecular target: T3, NAD-dependent protein deacetylase sirtuin-1; assay: Inhibition of SIRT1 (unknown origin)
[9] = molecular target: T4, NAD-dependent protein deacetylase sirtuin-2 (Homo sapiens, UniProt Q8IXJ6); assay: Inhibition of SIRT2 (unknown origin)
T4 sequence (Q8IXJ6 whole entry): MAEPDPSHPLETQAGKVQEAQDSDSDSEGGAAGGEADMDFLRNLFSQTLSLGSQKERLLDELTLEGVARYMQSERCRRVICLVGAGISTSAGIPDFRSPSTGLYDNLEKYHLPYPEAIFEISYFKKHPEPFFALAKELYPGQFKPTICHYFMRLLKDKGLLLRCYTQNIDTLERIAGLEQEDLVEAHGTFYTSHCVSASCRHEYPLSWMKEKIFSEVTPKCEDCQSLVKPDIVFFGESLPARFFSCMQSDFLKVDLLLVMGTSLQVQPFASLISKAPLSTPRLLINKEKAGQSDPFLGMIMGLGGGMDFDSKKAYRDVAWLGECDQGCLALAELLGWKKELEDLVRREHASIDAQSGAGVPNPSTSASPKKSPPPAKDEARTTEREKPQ

[10] = molecular target: T1, NAD-dependent protein deacylase sirtuin-5, mitochondrial; assay: Inhibition of human recombinant SIRT5 using Benzyl-Lys(succinyl)-AMC as substrate incubated for 2 hrs by fluorescence based assay
Target sequence in this assay (Q9NXA8 whole entry, the tested form may be a part): as the sequence (Q9NXA8 whole entry, the tested form may be a part) above

O=C(O)CCNC(=S)NCCCCC(NC(=O)OCc1ccccc1)C(=O)Nc1ccccc1O (stereo unspecified)
IC50 [1]: < 15 µM

CCn1c(=O)n(CC(C)C)c(=O)c2[nH]c(SSc3nc4c([nH]3)c(=O)n(CC(C)C)c(=O)n4CC)nc21
IC50 [2]: 0.43 µM | IC50 [3]: 1.77 µM

CC1(C)CC[C@]2(C(=O)O)[C@H](O)C[C@]3(C)C(=CC[C@@H]4[C@@]5(C)CC[C@H](O)C(C)(C)[C@@H]5CC[C@]43C)[C@@H]2C1
IC50 [4]: 40 µM

N=C(N)NCCCC[C@@H]1NC(=O)CCCCCCC(=O)NCCCC[C@@H](C(N)=O)NC(=O)[C@H](CCCCNC(=S)NCCC(=O)O)NC1=O
IC50 [4]: 13.2 µM

CC(=O)N[C@H]1CCCCNC(=O)CNC(=O)CCCCCCC(=O)NC(=O)NCCCC[C@@H](C(=O)N[C@H](C(N)=O)[C@@H](C)O)NC(=O)[C@H](CCCCNC(=S)NCCC(=O)O)NC(=O)[C@H](CCCNC(=N)N)NC1=O
IC50 [5]: 6 µM

O=C(NCCn1c2ccccc2c2ccccc21)Nc1ccc(C(=O)O)cc1
inhibition [6]: 35% | inhibition [7]: 52%

N=C(N)NCCCC[C@@H]1NC(=O)CCC(=O)NCCCC[C@@H](C(N)=O)NC(=O)[C@H](CCCCNC(=S)NCCC(=O)O)NC1=O
IC50 [4]: 2.2 µM

O=C(O)CC(=S)NCCCC[C@H](NC(=O)OCc1ccccc1)C(=O)Nc1ccccc1
IC50 [8]: 256 µM | IC50 [9]: 256 µM | IC50 [4]: 5 µM

CC(=O)N[C@H]1CCCCNC(=O)CCCCCCC(=O)NCCCC[C@@H](C(=O)N[C@H](C(N)=O)[C@@H](C)O)NC(=O)[C@H](CCCCNC(=S)NCCC(=O)O)NC(=O)[C@H](CCCNC(=N)N)NC1=O (Ac-KR[X1]KT-NH2; linker 1-4 via Suberoyl)
IC50 [5]: 7 µM

O=C(O)CCNC(=S)NCCCC[C@H](NS(=O)(=O)c1cccc(F)c1)C(=O)N[C@@H](Cc1c[nH]c2ccccc12)C(=O)NC1CCC1
IC50 [4]: < 0.3 µM

CC1(C)CC[C@]2(C(=O)O)CC[C@]3(C)C(=CC[C@@H]4[C@@]5(C)CC[C@H](O)C(C)(C)[C@@H]5CC[C@]43C)[C@@H]2C1 [OLEANOLIC_ACID]
IC50 [4]: 70 µM

O=C(O)CCNC(=S)NCCCCC(NC(=O)OCc1ccccc1)C(=O)Nc1ccc(O)cc1 (stereo unspecified)
IC50 [1]: < 15 µM

N#C/C(=C\c1ccc(-c2ccc(C(=O)O)cc2)o1)C(=O)Nc1ccc(Cl)c([N+](=O)[O-])c1
IC50 [10]: 9.26 µM

CNC(=O)c1cccc(NC(=O)/C(C#N)=C/c2ccc(-c3ccc(C(=O)O)cc3)o2)c1
IC50 [10]: 8 µM

CC(=O)NC(CCCCNC(=S)NCCC(=O)O)C(=O)Nc1cccc(O)c1 (stereo unspecified)
IC50 [1]: < 15 µM

CC1=NN(c2ccc(C)c(Cl)c2)C(=O)/C1=C\c1ccc(-c2ccc(C(=O)O)cc2)o1
IC50 [10]: 18.3 µM

N=C(N)NCCCC[C@@H]1NC(=O)CCCCC(=O)NCCCC[C@@H](C(N)=O)NC(=O)[C@H](CCCCNC(=S)NCCC(=O)O)NC1=O
IC50 [4]: 6.5 µM

O=C(O)CCNC(=S)NCCCC[C@H](NS(=O)(=O)c1cccc(F)c1)C(=O)N[C@@H](Cc1c[nH]c2ccccc12)C(=O)NC1CCCC1
IC50 [4]: 0.11 µM

O=C(O)CCNC(=S)NCCCC[C@H](NS(=O)(=O)c1cccc(F)c1)C(=O)N[C@@H](Cc1c[nH]c2ccccc12)C(=O)NC1CC1
IC50 [4]: < 0.3 µM

N=C(N)NCCCC[C@@H]1NC(=O)CCNC(=O)CCC[C@@H](C(N)=O)NC(=O)[C@H](CCCCNC(=S)NCCC(=O)O)NC1=O
IC50 [4]: 4 µM

N#C/C(=C\c1ccc(-c2ccc(C(=O)O)cc2)o1)C(=O)Nc1ccc(C#N)c(F)c1
IC50 [10]: 5.9 µM

CC(C)(C)OC(=O)NC(CCCCNC(=S)NCCC(=O)O)C(=O)Nc1cccc(O)c1 (stereo unspecified)
IC50 [1]: < 15 µM

From ChEMBL document CHEMBL5126549, “Overview of SIRT5 as a potential therapeutic target: Structure, function and inhibitors” (Eur J Med Chem, 2022)
